Data reported in patent publication US20190167771A1, “CONTROL ANGIOGENESIS BY REGULATING PHOSPHORYLATION OF SERYL-tRNA SYNTHETASE (SerRS)” (The Scripps Research Institute, priority 2016, published 2019).

Assays:
[1] = tested on: zebrafish embryos; assay: Intersegmental vessel (ISV) branching in zebrafish embryos; assay type: in vivo; conditions: human SerRS mRNA co-injected with SerRS-MO, 3 dpf
Method: (§1) In FIG. 2A, wild type SerRS (SerRS^WT), its mutants with double substitutions of serine 101 and 241 with alanine or aspartic acid residues (SerRS^S101A/S241A and SerRS^S101D/S241D), or empty vector were transfected into HEK293 cells. The expression levels of SerRS proteins was measured by immunoblot (bottom) and VEGFA expression was determined by qRT-PCR (means±SEM from three independent experiments; ***P<0.0001). In FIGS. 2B-D, the roles of SerRS^S101A/S241A and SerRS^S101D/S241D in regulating vascular development in vivo in zebrafish were examined by co-injection of SerRS^S101A/S241A and SerRS^S101D/S241D mRNAs into one-cell-stage embryos whose endogenous SerRS was knocked down by injection of antisense morpholino (SerRS-MO) that led to abnormal high expression of Vegfa and hypervascularization (shown by short bold arrows in FIG. 2C). At 3 day post fertilization (dpf), embryos were harvested and Vegfa expression levels were measured by qRT-PCR (means±SEM, n=125-211; *P<0.01, **P<0.001) (B). The development of intersegmental vessel (ISV) at 3 dpf was examined (C) and the statistics of ISV abnormal branching rescued by SerRS^WT or mutant SerRS mRNA injections was analyzed (D; χ^2-test,* P>0.05 vs SerRS^WT, **P>0.1 vs SerRS-MO, ***P<1×10^−28 vs control-MO). In FIG. 2E, the binding affinities of SerRS^WT or SerRS^S101D/S241D with ^32P labeled DNA fragments corresponding to SerRS binding site on human VEGFA promoter were examined by EMSA. In FIG. 2F, the binding of SerRS^WT, SerRS^S101A/S241A, or SerRS^S101D/S241D on VEGFA promoter in HEK293 cells was examined by chromatin immunoprecipitation (ChIP) and qPCR (means±SEM from two independent experiments; ***P<0.0001). In FIG. 2G, the binding of endogenous SerRS on VEGFA promoter during hypoxia course was monitored by ChIP (means±SEM from three independent experiments; *P<0.05, **P<0.005 vs normal).
Transgenic Tg (Fli1a: EGFP) fish were maintained as we described before (Ref). The fish embryos were kept at 28.5° C. before and after microinjection. The antisense morpholino (MOs) targeting SerRS was injected into the yolk of 1-cell stage embryos at the dosage of 4˜5 ng per embryo. The sequence of SerRS-MO is (Ref). The SerRS-MO (5′ AGGAGAATGTGAACAAACCTGACAC 3′ (SEQ ID NO: 34)) and standard control MO (5′ CCTCTTACCTCAGTTACAATTTATA 3′ (SEQ ID NO: 35)) were purchased from Gene Tools, LLC (Philomath, Oreg. USA). After injection, embryos were incubated in E3 embryo medium supplemented with 0.003% 1-phenyl-2-thiourea (PTU) at 28.5° C. to prevent pigment formation. […] The rescue effects of different SerRS mutants on ISV development were analyzed with χ^2 test. […]

[2] = tested on: Vegfa; assay: Vegfa mRNA by qRT-PCR in zebrafish embryos with SerRS knockdown and mRNA co-injection; assay type: in vivo; conditions: human SerRS mRNA co-injected with SerRS-MO, 3 dpf
Method: as §1
Total RNA was isolated from cells and zebrafish embryos by TRIzol Reagent (ThermoFisher Scientific). […] of the total RNA from each sample was reversely transcribed to cDNA by M-MLV reverse transcriptase (Promega, Madison, Wis., USA). All real-time PCR reactions were performed using the StepOnePlus Real-Time PCR system (ThermoFisher Scientific) with SYBR Select Master Mix ThermoFisher Scientific). […]

| Substance | zebrafish embryos with abnormal hyper-ISV branching phenotype [1] [%] | rescue of Vegfa mRNA increase caused by SerRS-MO [2] |
| --- | --- | --- |
| SerRS^S101A/S241A: phosphorylation-deficient human SerRS double mutant, serine 101 and 241 to alanine, SEQ ID NO: 4 (mouse version in matrigel assay) | 26.4 | rescued or largely rescued |
| SerRS^WT: wildtype human seryl-tRNA synthetase protein, SEQ ID NO: 1 (mouse wild type used in the 3B11 matrigel assay) | 17.9 | rescued or largely rescued |
| SerRS^S101D/S241D: SerRS with double substitutions of S101 and S241 with aspartic acid, mimics the phosphorylated SerRS | 62.7 | no rescue effect at all |
